Toxic doses and inconclusive results are not listed.
Test system: BDF1 mice, P388 leukemia ip, median survival T/C
Experiment: NCI In Vivo Anticancer Drug Screen. Data for tumor model P388 Leukemia (intraperitoneal) in B6D2F1 (BDF1) mice
Settings: endpoint: median survival time, higher = longer survival
How it was run: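 Steps: implant the tumour, treat one group with compound and another with vehicle, record survival, then divide treated by control.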

[1] = dose: 100.0 mg/kg/injection, schedule: Q04DX003 (ip), vehicle: saline with Tween-80
[2] = dose: 200.0 mg/kg/injection, schedule: Q04DX003 (ip), vehicle: saline with Tween-80
[3] = dose: 50.0 mg/kg/injection, schedule: Q04DX003 (ip), vehicle: saline with Tween-80
[4] = dose: 25.0 mg/kg/injection, schedule: Q04DX003 (ip), vehicle: saline with Tween-80

O=S1(=O)CCN(C2CCCCCCCCCCC2)CC1
T/C (dose: 50.0 mg/kg/injection, schedule: Q01DX009 (ip), vehicle: Klucel (hydroxypropylcellulose) (HPC)): 108 % of control | T/C (dose: 100.0 mg/kg/injection, schedule: Q01DX009 (ip), vehicle: Klucel (hydroxypropylcellulose) (HPC)): 106 % of control | T/C (dose: 200.0 mg/kg/injection, schedule: Q01DX009 (ip), vehicle: Klucel (hydroxypropylcellulose) (HPC)): 101 % of control

COC(=O)/C=C(\C)Oc1cc(Cl)c(Cl)cc1Cl
T/C (dose: 25.0 mg/kg/injection, schedule: Q01DX009 (ip), vehicle: saline with Tween-80): 90 % of control | T/C (dose: 50.0 mg/kg/injection, schedule: Q01DX009 (ip), vehicle: saline with Tween-80): 100 % of control | T/C (dose: 100.0 mg/kg/injection, schedule: Q01DX009 (ip), vehicle: saline with Tween-80): 100 % of control | T/C [1]: 109 % of control | T/C [2]: 100 % of control | T/C (dose: 400.0 mg/kg/injection, schedule: Q04DX003 (ip), vehicle: saline with Tween-80): 95 % of control

CCC(=O)/C=C/C1=C(C)CCCC1(C)C
T/C [3]: 104 % of control | T/C [1]: 104 % of control | T/C [2]: 95 % of control

CCN(CC)CCNc1ccc(CO)c2sc3ccccc3c(=O)c12
T/C (dose: 17.3 mg/kg/injection, schedule: Q01DX009 (ip), vehicle: water): 108 % of control | T/C (dose: 18.75 mg/kg/injection, schedule: Q01DX009 (ip), vehicle: saline): 104 % of control | T/C (dose: 21.6 mg/kg/injection, schedule: Q01DX009 (ip), vehicle: water): 119 % of control | T/C (dose: 28.8 mg/kg/injection, schedule: Q01DX009 (ip), vehicle: water): 122 % of control | T/C (dose: 42.0 mg/kg/injection, schedule: Q01DX009 (ip), vehicle: water): 150 % of control | T/C (dose: 48.0 mg/kg/injection, schedule: Q01DX009 (ip), vehicle: water): 170 % of control | T/C (dose: 60.0 mg/kg/injection, schedule: Q01DX009 (ip), vehicle: water): 160 % of control | T/C (dose: 70.0 mg/kg/injection, schedule: Q01DX009 (ip), vehicle: water): 122 % of control | T/C (dose: 75.0 mg/kg/injection, schedule: Q01DX009 (ip), vehicle: saline): 116 % of control | T/C (dose: 80.0 mg/kg/injection, schedule: Q01DX009 (ip), vehicle: water): 188 % of control | T/C (dose: 88.0 mg/kg/injection, schedule: Q04DX003 (ip), vehicle: saline): 109 % of control | T/C (dose: 100.0 mg/kg/injection, schedule: Q01DX009 (ip), vehicle: water): 113 % of control | T/C (dose: 117.0 mg/kg/injection, schedule: Q01DX009 (ip), vehicle: water): 97 % of control | T/C (dose: 132.0 mg/kg/injection, schedule: Q04DX003 (ip), vehicle: saline): 109 % of control | T/C (dose: 200.0 mg/kg/injection, schedule: Q04DX003 (ip), vehicle: saline): 122 % of control | T/C (dose: 300.0 mg/kg/injection, schedule: Q04DX003 (ip), vehicle: saline): 163 % of control

CN=C(NC)c1ccc(NC(=O)/C=C\c2ccc(C(=O)Nc3ccc(C(=NC)NC)cc3)cc2)cc1
T/C (dose: 0.15 mg/kg/injection, schedule: Q01DX009 (ip), vehicle: saline with Tween-80): 116 % of control | T/C (dose: 0.5 mg/kg/injection, schedule: Q01DX009 (ip), vehicle: saline with Tween-80): 155 % of control | T/C (dose: 1.32 mg/kg/injection, schedule: Q04DX003 (ip), vehicle: saline with Tween-80): 108 % of control | T/C (dose: 1.5 mg/kg/injection, schedule: Q01DX009 (ip), vehicle: saline with Tween-80): 161 % of control | T/C (dose: 2.0 mg/kg/injection, schedule: Q04DX003 (ip), vehicle: saline with Tween-80): 112 % of control | T/C (dose: 4.4 mg/kg/injection, schedule: Q04DX003 (ip), vehicle: saline with Tween-80): 154 % of control | T/C (dose: 4.5 mg/kg/injection, schedule: Q04DX003 (ip), vehicle: saline with Tween-80): 162 % of control | T/C (dose: 6.6 mg/kg/injection, schedule: Q04DX003 (ip), vehicle: saline with Tween-80): 168 % of control | T/C (dose: 10.0 mg/kg/injection, schedule: Q04DX003 (ip), vehicle: saline with Tween-80): 154 % of control | T/C (dose: 12.5 mg/kg/injection, schedule: Q04DX003 (ip), vehicle: saline with Tween-80): 177 % of control | T/C (dose: 15.0 mg/kg/injection, schedule: Q04DX003 (ip), vehicle: saline with Tween-80): 177 % of control | T/C [4]: 100 % of control | T/C [3]: 86 % of control

O=C(Nc1ccc2c(c1)OCO2)O/N=C\c1cccnc1
T/C [3]: 100 % of control | T/C [1]: 109 % of control | T/C [2]: 109 % of control

N#CC(C(N)=O)c1ccccc1 (configuration not stated)
T/C [4]: 102 % of control | T/C [3]: 108 % of control | T/C [1]: 97 % of control

— PubChem BioAssay AID328 (DTP/NCI, 2004)
